The target of data set [1] is T1, PHD2 (Homo sapiens, UniProt Q9GZT9).
T1 construct: The catalytic domain of PHD2 (residues 181–426) was purified as described; made in house
Put plainly: Stopped-flow UV-visible spectroscopy, PHD2·Fe(II)·2OG·substrate + O2. In kind it is biochemical. The settings on record: anaerobic 0.8 mM PHD2, 1 mM peptide, 5 mM 2OG, 50 mM HEPES pH 7.5, mixed 1:1 with O2-saturated buffer at 5 °C, double exponential fit; for Stopped-flow, 520 nm (PHD2) kfall phase: traces average of triplicate. The protocol:
Stopped-flow UV-visible spectroscopy experiments were performed as described previously ([32], [42]). […] The reaction was observed over 1000 s using a photodiode array detector, and kinetic traces were analyzed using Origin version 8.51 software. Data were fitted with a double exponential function (y = A1 × exp(−kriset) + A2 × exp(−kfallt) + y0). The A1, A2, and y0 parameters were restricted with upper limits to match the observed amplitude/offset changes.
Previously reported pre-steady-state kinetic studies on PHD2 focused on its reaction with CODD HIF-1α 19-mer peptide ([38], [42]); there is no reported information on the rates of PHD2 reaction with O2 in the presence of NODD HIF-1α or HIF-2α substrates. To ascertain whether a slow reaction with O2 under pre-steady-state conditions is common to PHD2-catalyzed hydroxylation of both CODD and NODD, we investigated the reaction of PHD2 with NODD substrates in comparison with CODD for both HIF-1α and HIF-2α. Pre-steady-state reactions of PHD2 were initiated by rapid mixing of anaerobic PHD2·Fe(II)·2OG·HIF-α complexes with O2-saturated buffer at 5 °C. Reactions were initially observed using a photodiode array detector, and difference spectra (in comparison with the reaction with O2-free buffer) were subsequently analyzed.
FIGURE 5. Pre-steady-state kinetics of PHD2-catalyzed HIF-1/2α hydroxylation. […] B, stopped-flow kinetic traces at 520 nm showing absorbance changes in control experiments: Fe(II) only, mix of Fe(II) and 2OG, reaction of PHD2·Fe(II)·2OG complex with O2 in the absence of CODD; reaction of PHD2·Fe(II)·N-oxalylglycine (NOG)·CODD complex with O2. N-Oxalylglycine is an inhibitor of 2OG oxygenases. […] The kinetic traces represent the average of triplicate assays. E, HIF-1/2α peptide hydroxylation, as determined by MALDI-TOF-MS. Reactions were quenched with 1% CF3CO2H at defined time points.

In data set [2] the target is T1, PHD2. The data set is described as follows: Time course of PHD2-catalyzed peptide hydroxylation. In kind it is biochemical. The following applies: 4 μM PHD2, 100 μM peptide, 50 μM Fe(II), 300 μM 2OG, 1 mM L-ascorbate, 50 mM HEPES pH 7.5, 37 °C, atmospheric O2; MALDI-TOF-MS; triplicate assays. As to the method:
Enzymatic assays were conducted as described ([46], [47]). Unless otherwise stated, the assay mixture typically contained 5 μM FIH, 500 μM substrate, 500 μM 2OG, 1 mM L-ascorbate, and 50 μM Fe(NH4)2(SO4)2 or 4 μM PHD2, 100 μM substrate, 300 μM 2OG, 4 mM L-ascorbate, and 50 μM Fe(NH4)2(SO4)2. For HIF-1α CODD19-mer, the background levels of methionine oxidation resulting from assay conditions were subtracted based on non-enzymatic controls ([48]).
FIGURE 3. PHD2- and FIH-catalyzed hydroxylation of HIF-1/2α peptide substrates. A, time course of HIF-1/2α CODD19-mer peptide hydroxylation; B, time course of HIF-1/2α NODD19-mer peptide hydroxylation. Conditions were as follows: 4 μM PHD2, 100 μM peptide, 50 μM Fe(II), 300 μM 2OG, 1 mM L-ascorbate in HEPES 50 mM (pH 7.5) were incubated at 37 °C at atmospheric O2. C, time course of HIF-1α CAD 19- and 35-mer peptide hydroxylation. D, time course of HIF-2α CAD 19- and 35-mer peptide hydroxylation. Conditions were as follows: 5 μM FIH, 500 μM peptide, 50 μM Fe(II), 500 μM 2OG, 1 mM L-ascorbate in HEPES 50 mM (pH 7.5) were incubated at 37 °C at atmospheric O2. The different hydroxylation levels were analyzed by MALDI-TOF-MS. Error bars, S.D. of triplicate assays.

Data set [3] in a line: CD spectroscopy and thermal denaturation of 2CA and 3CA. It counts as physicochemical. The settings on record: for secondary structure in solution by circular dichroism: 0.2 mg/ml protein in 10 mM sodium phosphate buffer pH 8.0 (Fig. 7), thermal denaturation 10 to 90 °C. As to the method: CD spectra were recorded using a Chirascan CD/fluorimeter (Applied Photophysics) spectrometer. Measurements were carried out at 20 °C in a 0.1 cm path length quartz cuvette, with protein concentration of 0.125 mg/ml in 5 mM sodium phosphate buffer (pH 8.0). Spectra were recorded in the wavelength range of 260–190 nm at 0.5-nm intervals, and each spectrum represents an average of three scans. Spectra were baseline-corrected by subtraction of the buffer spectrum. Data were expressed as the mean residue ellipticity ([θ], degrees·cm^2·dmol^−1). Thermal denaturation experiments were performed under the same conditions. The ellipticity at 220 nm (θ220) was monitored from 10 to 90 °C.
FIGURE 7. CD spectroscopic comparison of 2CA and 3CA secondary structure. Thermal denaturation experiments of 2CA and 3CA are shown. Conditions were as follows. 0.2 mg/ml protein in 10 mM sodium phosphate buffer (pH 8.0) was studied at 222 nm for thermal denaturation experiments between 10 and 90 °C. A, melting curves of 2CA. B, spectra of 2CA between 260 and 190 nm at 10 °C, after heating to 90 °C and after cooling again to 10 °C. C, melting curves of 3CA. D, spectra of 3CA between 260 and 190 nm at 10 °C, after heating to 90 °C, where the α-helical structure is predominantly lost, and after cooling again to 10 °C, where the structure is largely regained.

Where “and” joins values, the source holds several entries; their conditions need not be identical. Identical values can stand only once. Some results are limits rather than exact numbers.

T1 sequence (Q9GZT9 181-426): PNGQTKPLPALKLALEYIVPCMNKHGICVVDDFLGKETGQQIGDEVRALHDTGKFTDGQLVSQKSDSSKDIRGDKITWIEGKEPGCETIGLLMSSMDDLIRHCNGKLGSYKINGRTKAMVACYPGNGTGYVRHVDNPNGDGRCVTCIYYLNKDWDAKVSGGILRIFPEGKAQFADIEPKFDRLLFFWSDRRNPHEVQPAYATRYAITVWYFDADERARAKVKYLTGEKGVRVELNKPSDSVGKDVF

For the sequence “EELAQLAPTPGDAIISLDF [HIF-2α NODD, 19-mer fragment (398–416) of the HIF-2α N-terminal oxygen-dependent degradation domain, PHD2 substrate]”, the “Stopped-flow, 520 nm (PHD2) krise phase” value on PHD2 [1] came out at 0.003 ± 0.001 s⁻¹. Besides, the “Stopped-flow, 520 nm (PHD2) kfall phase” value at PHD2 [1] (listed as NODD HIF-2α) was 0.195 ± 0.003 s⁻¹ and 0.195 ± 0.009 s⁻¹. For the same sequence, on PHD2 [2], the “substrate hydroxylation after 15 min” value was found to be 20%.
In the case of “SDKNGSTPLHLAARNGHLEVVKLLLEHGADVNAQDKWGKTAFDISIDNGNEDLAEILQ [2CA, recombinant two-consensus ankyrin repeat protein produced in Escherichia coli]”, the “secondary structure in solution by circular dichroism” value in data set [3] is reported as “does not possess significant secondary structure”. Moreover, the “temperature above which the protein is unfolded (CD)” value in data set [3] (thermal denaturation between 10 and 90 °C, sodium phosphate buffer pH 8.0) was greater than 10 °C.
For “ELDLETLAPYIPMDGEDFQ [HIF-2α CODD, 19-mer fragment (523–541) of the HIF-2α C-terminal oxygen-dependent degradation domain, PHD2 substrate]”, at PHD2 [1], the “Stopped-flow, 520 nm (PHD2) krise phase” value was 0.027 ± 0.001 s⁻¹ and the “Stopped-flow, 520 nm (PHD2) kfall phase” value is 0.450 ± 0.010 s⁻¹. Moreover, the “substrate hydroxylation after 15 min” value on PHD2 [2] was found to be 90%.
Consider “GSHMGSDLGKKLLEAARAGQDDEVRILMANGADVAAKDKNGSTPLHLAARNGHLEVVKLLLEAGADVNAQDKFGKTAFDISIDNGNEDLAEILQ [3CA, recombinant three-consensus ankyrin repeat protein produced in Escherichia coli]”, for which the “secondary structure in solution by circular dichroism” value in data set [3] is “folded in solution”.

(Values after publication PMC4528135, “Kinetic Investigations of the Role of Factor Inhibiting Hypoxia-inducible Factor (FIH) as an Oxygen Sensor” (The Journal of Biological Chemistry, 2015).)
